The values below come from patent US20150094328A1, “4-Azaindole Derivatives” (Eisai R&D Management Co., Ltd., priority 2013, published 2015).

This experiment concerns the target T1, mAChR M1 (UniProt P11229).
T1 sequence (P11229 1-460): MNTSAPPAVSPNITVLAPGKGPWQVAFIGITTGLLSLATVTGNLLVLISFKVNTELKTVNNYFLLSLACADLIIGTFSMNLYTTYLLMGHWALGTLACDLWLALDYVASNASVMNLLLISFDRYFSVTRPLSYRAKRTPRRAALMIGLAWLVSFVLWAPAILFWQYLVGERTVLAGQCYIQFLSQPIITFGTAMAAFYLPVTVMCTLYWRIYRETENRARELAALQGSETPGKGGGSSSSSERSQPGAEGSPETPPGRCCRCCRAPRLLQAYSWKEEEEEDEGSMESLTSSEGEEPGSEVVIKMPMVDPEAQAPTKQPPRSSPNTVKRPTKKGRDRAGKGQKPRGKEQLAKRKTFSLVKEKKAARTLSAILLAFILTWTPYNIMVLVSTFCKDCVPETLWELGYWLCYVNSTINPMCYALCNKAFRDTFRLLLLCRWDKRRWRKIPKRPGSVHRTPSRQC
In words: In vitro cellular calcium flux assay, positive allosteric modulator mode, mAChR M1. The format is cell-based, human. The settings on record: PAM mode with EC20 carbachol, BHK cells expressing mAChR M1, Examples 76-80 and 82-89 tested in slightly modified procedure. How it is done: Baby hamster kidney cells stably expressing human or rat mAChR M1 to M5 were utilised for primary and selectivity profiling activities. mAChR M2 and M4 cell lines also stably expressed the chimeric Gαqi5 G-protein.
Human mAChR M1, M3, M5 and rat M1 cells were grown in low glucose Dulbecco's Modified Eagle's Medium (DMEM) medium plus heat inactivated 10% fetal bovine serum (HI FBS) and 500 μg/ml hygromycin B^1. Human mAChR M2 and M4 cells were maintained as above with^2 the addition of 500 μg/ml G418 to the media. Cells were maintained in culture at 37° C./5% CO2 and passaged twice weekly by treatment with 0.05% Trypsin/EDTA detachment solution, centrifugation (200 g, 5 min) and re-suspension in fresh media. Following cell expansion, cells were cryopreserved at −80° C. by treatment with 0.05% Trypsin/EDTA detachment solution, centrifugation (200 g, 5 min) and re-suspension of the pellet in freezing media (90% HI FBS/10% DMSO^3) at 15E6 cells/ml^4.
Prior to assaying, cells were prepared by thawing at 37° C. in a water bath, centrifugation (200 g, 5 min) and re-suspension of the pellet in fresh media. 15000 cells per well were seeded in black, clear bottomed 384-well Greiner Bio-One plates in plating medium (DMEM/10% HI FBS) and incubated overnight at 37C/5% CO2.
On the day of the assay, media was removed from each well and replaced with 500 assay buffer (HBSS with 20 mM HEPES and 2.5 mM Probenecid) containing the calcium indicator, Calcium 4 (Molecular Devices). Cells were then incubated at 37° C./5% CO2 for 30 min and at room temperature.
Compound preparation was carried out by generation of 11-point, 1 in 3 serial dilution concentration response curves in 100% DMSO. Compound was then diluted 1 in 65^6 with assay buffer (HBSS with 20 mM HEPES and 2.5 mM Probenecid) prior to the addition of 10 ul^7 to the cells using a Tetra fluorometric imaging plate reader (Molecular Devices)^8. Compound driven increases in intracellular calcium flux was measured as an increase in fluorescence (494Ex, 516Em)^9.
Following agonist data acquisition, cells were then incubated for a further 30 min at room temperature before either an EC20 concentration (to measure positive allosteric modulator activity) or an EC80 concentration (to measure antagonism) of carbachol was added using a fluorometric imaging plate reader. Positive allosteric modulator pEC50 values and antagonist pIC50 values for each compound were then determined. […] Data analysis was carried out using a 4 parameter logistic nonlinear regression model with the XLFIT (IDBS) excel add-in^10.
^1-10Examples 76-80 and 82-89 were tested in a slightly modified procedure. The points of modification and the alternate reagents, concentrations or equipment employed in these examples were: ^1200 μg/ml hygromycin B; ^2G418 not added; ^3CELLBANKER 1; ^410E6; ^540 μl; ^61 in 99; ^720 μl; ^8FDSS6000 (Hamamatsu Photonics); ^9(480Ex, 540Em); 10Spotfire (TIBCO).
A general note: Calcium assays in cells follow changes in intracellular calcium, usually with a dye or a luminescent sensor.
As to `COc1ccc(Cn2cc(C(=O)N[C@H]3CCOC[C@@H]3O)c3nccc(Cl)c32)cc1` (single isomer, unassigned) [Example 87, 7-Chloro-1-(4-methoxybenzyl)-N-(trans-3-hydroxytetrahydro-2H-pyran-4-yl)-1H-pyrrolo[3,2-b]pyridine-3-carboxamide], the “pEC50 for positive allosteric modulation” value was found to be 7.9. Then `N#Cc1ccc(Cn2cc(C(=O)N[C@H]3CCCC[C@@H]3O)c3nccc(Cl)c32)cn1` [Example 70, 7-Chloro-1-((6-cyanopyridin-3-yl)methyl)-N-((1S,2S)-2-hydroxycyclohexyl)-1H-pyrrolo[3,2-b]pyridine-3-carboxamide], with 7.0; and `O=C(N[C@H]1CCCC[C@@H]1O)c1cn(Cc2ccc(F)c(F)c2)c2cccnc12` [Example 94, 1-(3,4-difluorobenzyl)-N-((1S,2S)-2-hydroxycyclohexyl)-1H-pyrrolo[3,2-b]pyridine-3-carboxamide], with 6.6; and `COc1ccc(Cn2cc(C(=O)N[C@H]3CCOC[C@@H]3O)c3nccc(C)c32)cc1F` (single isomer, unassigned) [Example 84, 1-(3-Fluoro-4-methoxybenzyl)-N-(trans-3-hydroxytetrahydro-2H-pyran-4-yl)-7-methyl-1H-pyrrolo[3,2-b]pyridine-3-carboxamide], with 7.9. With `N#Cc1ccnc2c(C(=O)N[C@H]3CCCC[C@@H]3O)cn(Cc3ccc(C(F)(F)F)cc3)c12` [Example 33, 7-Cyano-N-((1S,2S)-2-hydroxycyclohexyl)-1-(4-(trifluoromethyl)benzyl)-1H-pyrrolo[3,2-b]pyridine-3-carboxamide], the “pEC50 for positive allosteric modulation” value is reported as 7.0. To `O=C(N[C@@H]1CCOC[C@H]1O)c1cn(Cc2cccc(F)c2)c2c(Cl)ccnc12` (single isomer, unassigned) [Example 86, 7-Chloro-1-(3-fluorobenzyl)-N-(trans-3-hydroxytetrahydro-2H-pyran-4-yl)-1H-pyrrolo[3,2-b]pyridine-3-carboxamide] belongs 7.6. As for `O=C(N[C@H]1CCC[C@@H]1O)c1cn(Cc2ccc(F)cc2)c2cccnc12` (racemic) [Example 27, 1-(4-Fluorobenzyl)-N-(trans-2-hydroxycyclopentyl)-1H-pyrrolo[3,2-b]pyridine-3-carboxamide], the “pEC50 for positive allosteric modulation” value was 6.1. For the molecule `O=C(N[C@@H]1CCC(F)(F)C[C@H]1O)c1cn(Cc2ccc(F)cc2)c2cccnc12` (single isomer, unassigned) [Example 35, N-(trans-4,4-Difluoro-2-hydroxycyclohexyl)-1-(4-fluorobenzyl)-1H-pyrrolo[3,2-b]pyridine-3-carboxamide], the “pEC50 for positive allosteric modulation” value is 6.1.

Turning to `C[C@H]1CCCC[C@@H]1NC(=O)c1cn(Cc2ccc(F)cc2)c2cccnc12` (racemic) [Example 20, 1-(4-Fluorobenzyl)-N-(trans-2-methylcyclohexyl)-1H-pyrrolo[3,2-b]pyridine-3-carboxamide], the “pEC50 for positive allosteric modulation” value is reported as 6.1.

Turning to `COc1ccc(Cn2cc(C(=O)N[C@H]3CCOC[C@@H]3O)c3nccc(C)c32)cc1` (single isomer, unassigned) [Example 83, 1-(4-Methoxybenzyl)-N-(trans-3-hydroxytetrahydro-2H-pyran-4-yl)-7-methyl-1H-pyrrolo[3,2-b]pyridine-3-carboxamide], the “pEC50 for positive allosteric modulation” value is reported as 8.0. Take `O=C(N[C@H]1CCC(F)(F)C[C@H]1O)c1cn(Cc2ccc(F)cc2)c2cccnc12` (single isomer, unassigned) [Example 36, N-(cis-4,4-Difluoro-2-hydroxycyclohexyl)-1-(4-fluorobenzyl)-1H-pyrrolo[3,2-b]pyridine-3-carboxamide]: the “pEC50 for positive allosteric modulation” value turned out to be 6.3. Take `O=C(N[C@H]1CCCC[C@@H]1CO)c1cn(Cc2ccc(F)cc2)c2cccnc12` (racemic) [Example 18, 1-(4-Fluorobenzyl)-N-(trans-2-(hydroxymethyl)cyclohexyl)-1H-pyrrolo[3,2-b]pyridine-3-carboxamide]: the “pEC50 for positive allosteric modulation” value was found to be 6.1.
